One assay has as its target T1, Dihydrofolate reductase (Rattus norvegicus, UniProt Q920D2).
T1 sequence (Q920D2 whole entry): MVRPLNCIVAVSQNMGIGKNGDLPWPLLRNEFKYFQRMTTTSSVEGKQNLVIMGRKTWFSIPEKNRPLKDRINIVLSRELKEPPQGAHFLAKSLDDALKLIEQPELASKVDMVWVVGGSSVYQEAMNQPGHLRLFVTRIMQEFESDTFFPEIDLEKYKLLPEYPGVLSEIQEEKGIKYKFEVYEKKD
The experiment in a line: Inhibition against dihydrofolate reductase enzyme of rat liver. The settings on record: read-out: I50.

Assay [1] concerns the target T2, Bifunctional dihydrofolate reductase-thymidylate synthase (Plasmodium berghei str. ANKA, UniProt Q27713). The experiment in a line: Compound was tested for its inhibition against dihydrofolate reductase enzyme of Plasmodium berghei. The settings on record: read-out: I50.
In a further assay the test system is Shigella dysenteriae. The experiment in a line: Tested for antibacterial activity against Shigella dysentariae CN1513. In kind it is functional.
The next assay concerns Salmonella. The experiment in a line: Tested for antibacterial activity against Salmonella typhi CN512. The assay is classed as functional, salmonella typhosa.
Assay [2] relates to Staphylococcus aureus. The experiment in a line: Tested for antibacterial activity against Staphylococcus aureus CN491.
Another assay has as its system Proteus vulgaris. Briefly: Tested for antibacterial activity against Proteus vulgaris CN329. The assay is classed as functional.
For a further assay, the system named is Streptococcus pyogenes. Briefly: Tested for antibacterial activity against Streptococcus pyogenes CN10. In kind it is functional.
The next assay has as its system Escherichia coli. The experiment in a line: Tested for antibacterial activity against Escherichia coli CN314. In kind it is functional.
For assay [3], the system named is Staphylococcus aureus. The experiment in a line: Tested for antibacterial activity against Staphylococcus aureus CN491. The assay is classed as functional.
Assay [4] addresses T2, Bifunctional dihydrofolate reductase-thymidylate synthase. Briefly: Tested for the inhibition of Plasmodium berghei dihydrofolate reductase enzyme. The following applies: read-out: I50.

Drawing on ChEMBL document CHEMBL1121436, “2,4-Diamino-5-benzylpyrimidines as antibacterial agents. 4. 6-Substituted trimethoprim derivatives from phenolic Mannich intermediates. Application to the synthesis of trimethoprim and 3,5-dialkylbenzyl analogues” (J Med Chem, 1980), this text covers IC50 and MIC for eleven molecules.

In brackets after ≈: the same amount, converted by molar mass.

T2 sequence (Q27713 whole entry): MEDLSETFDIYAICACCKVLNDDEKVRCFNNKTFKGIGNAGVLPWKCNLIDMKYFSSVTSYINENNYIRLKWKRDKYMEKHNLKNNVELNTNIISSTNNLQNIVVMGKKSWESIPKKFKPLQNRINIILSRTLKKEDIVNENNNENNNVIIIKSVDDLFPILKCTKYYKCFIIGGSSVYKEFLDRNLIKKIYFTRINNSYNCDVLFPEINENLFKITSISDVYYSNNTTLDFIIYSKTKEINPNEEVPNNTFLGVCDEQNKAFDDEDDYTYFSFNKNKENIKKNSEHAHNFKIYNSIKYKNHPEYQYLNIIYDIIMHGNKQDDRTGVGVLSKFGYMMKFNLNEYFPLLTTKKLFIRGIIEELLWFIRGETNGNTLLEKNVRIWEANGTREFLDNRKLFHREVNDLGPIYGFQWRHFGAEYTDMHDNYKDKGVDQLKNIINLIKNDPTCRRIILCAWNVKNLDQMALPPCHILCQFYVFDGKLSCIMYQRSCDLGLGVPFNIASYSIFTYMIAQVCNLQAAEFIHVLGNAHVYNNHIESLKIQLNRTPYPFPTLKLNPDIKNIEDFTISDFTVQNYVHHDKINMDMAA

With `COc1cc(Cc2c(N)nc(N)nc2N)cc(OC)c1OC`, the IC50 at Dihydrofolate reductase is above 900 µM.

As to `CCCc1nc(N)nc(N)c1Cc1cc(OC)c(O)c(OC)c1`, the IC50 in [1] came out at 1.5 µM.

As to `COc1cc(Cc2c(N)nc(N)nc2Oc2ccccc2)cc(OC)c1OC`, the MIC against Shigella dysenteriae, with Salmonella, with Staphylococcus aureus [2], against Proteus vulgaris, with Streptococcus pyogenes and against Escherichia coli was above 500 µg/mL in each case.

In the case of `COc1cc(Cc2c(N)nc(N)nc2OC)cc(OC)c1OC`, the MIC (usually the lowest concentration found to suppress growth) with Shigella dysenteriae is above 500 µg/mL; against Salmonella, above 500 µg/mL; against Staphylococcus aureus [3], 125 µg/mL (≈ 390 µM); against Proteus vulgaris it was above 500 µg/mL; against Streptococcus pyogenes, 8 µg/mL (≈ 25 µM); in the assay on Escherichia coli, above 500 µg/mL. The IC50 on Dihydrofolate reductase was above 100 µM.

As to `COc1cc(Cc2c(C)nc(N)nc2N)cc(OC)c1O`, the IC50 in assay [1] was 0.48 µM.

As for `COc1cc(Cc2c(N)nc(N)nc2-c2ccccc2)cc(OC)c1O`, the IC50 on Dihydrofolate reductase is above 45 µM.

For the molecule `COc1cc(Cc2c(N)nc(N)nc2SC)cc(OC)c1OC`, in assay [4], the IC50 came out at 20 µM.

For `COc1cc(Cc2c(C)nc(N)nc2N)cc(OC)c1OC`, the IC50 is 0.34 µM in [1] and above 400 µM at Dihydrofolate reductase.

Consider `COc1c(C(C)(C)C)cc(Cc2c(N)nc(N)nc2SC)cc1C(C)(C)C`, for which the MIC with Shigella dysenteriae, against Salmonella, with Staphylococcus aureus [2], in the assay with Proteus vulgaris, against Streptococcus pyogenes and in the assay with Escherichia coli was above 500 µg/mL throughout.

For the molecule `COc1cc(Cc2c(N)nc(N)nc2-c2ccccc2)cc(OC)c1OC`, the minimum inhibitory concentration (MIC) is 125 µg/mL (≈ 341 µM) against Shigella dysenteriae; 250 µg/mL (≈ 682 µM) in the assay with Salmonella; 62 µg/mL (≈ 169 µM) in the assay with Staphylococcus aureus [2]; above 500 µg/mL against Proteus vulgaris; 16 µg/mL (≈ 43.7 µM) against Streptococcus pyogenes; 250 µg/mL (≈ 682 µM) against Escherichia coli. The IC50 on Dihydrofolate reductase was above 400 µM.

With `CCCc1nc(N)nc(N)c1Cc1cc(OC)c(OC)c(OC)c1`, on Dihydrofolate reductase, the IC50 amounted to 1500 µM.
